This passage reports inhibition and IC50 results from ChEMBL document CHEMBL3232727, “Evaluation of bisindole as potent β-glucuronidase inhibitors: synthesis and in silico based studies” (Bioorg Med Chem Lett, 2014).

Assay [1] has as its target T1, Beta-glucuronidase (Bos taurus) (UniProt A3KMY8).
T1 sequence (whole entry): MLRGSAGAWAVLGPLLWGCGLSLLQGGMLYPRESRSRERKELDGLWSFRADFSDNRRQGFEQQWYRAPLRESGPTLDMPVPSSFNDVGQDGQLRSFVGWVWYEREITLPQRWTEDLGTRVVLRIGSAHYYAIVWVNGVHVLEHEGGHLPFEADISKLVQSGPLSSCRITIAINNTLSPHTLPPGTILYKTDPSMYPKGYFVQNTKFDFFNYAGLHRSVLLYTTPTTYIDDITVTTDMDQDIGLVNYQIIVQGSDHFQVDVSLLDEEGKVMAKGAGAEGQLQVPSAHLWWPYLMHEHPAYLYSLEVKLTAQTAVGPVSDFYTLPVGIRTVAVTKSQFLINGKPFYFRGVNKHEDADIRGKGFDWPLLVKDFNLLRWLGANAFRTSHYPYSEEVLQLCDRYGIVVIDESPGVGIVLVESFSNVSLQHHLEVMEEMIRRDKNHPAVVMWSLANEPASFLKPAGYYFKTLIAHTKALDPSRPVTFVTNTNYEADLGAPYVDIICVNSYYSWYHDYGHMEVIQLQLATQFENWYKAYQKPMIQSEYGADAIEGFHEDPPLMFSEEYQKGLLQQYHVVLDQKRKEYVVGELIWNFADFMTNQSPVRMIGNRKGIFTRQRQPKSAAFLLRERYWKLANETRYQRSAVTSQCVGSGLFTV
The assay can be described thus: (§1) Inhibition of bovine liver beta-glucuronidase using p-nitrophenyl-beta-D-glucuronide as substrate after 30 mins by spectrophotometry. Set-up: concentration or dose not given beside the values.

For another assay, the target named is T2, Beta-glucuronidase (Bos taurus, UniProt A3KMY8).
T2 sequence (A3KMY8 whole entry): T1 sequence (whole entry)
The description is as §1.

Each structure is given as a SMILES string. Where only a bound is given, the exact number is not on record here.

For `N#Cc1ccc2[nH]cc(C(c3ccc(Cl)c(Cl)c3)c3c[nH]c4ccc(C#N)cc34)c2c1`, the inhibition (commonly how much of the control response was suppressed) in assay [1] was less than 50%. With `CSc1ccc(C(c2c[nH]c3ccc(Br)cc23)c2c[nH]c3ccc(Br)cc23)cc1`, the inhibition in assay [1] was less than 50%. With `Cc1ccccc1C(c1c[nH]c2ccc(Br)cc12)c1c[nH]c2ccc(Br)cc12`, 20.9 µM corresponded to half-maximal inhibition on Beta-glucuronidase (IC50).

On to `N#Cc1ccc2[nH]cc(C(c3ccccc3[N+](=O)[O-])c3c[nH]c4ccc(C#N)cc34)c2c1`, for which the midpoint of inhibition against Beta-glucuronidase, the IC50, lay at 19.9 µM. The same measure, in the same setting: then `Clc1cccc(C(c2c[nH]c3ccc(Br)cc23)c2c[nH]c3ccc(Br)cc23)c1`, with 22.3 µM. Molecule `COc1ccccc1C(c1c[nH]c2ccc(Br)cc12)c1c[nH]c2ccc(Br)cc12` came in with an inhibition in assay [1] of less than 50%. Regarding `Oc1ccc(C(c2c[nH]c3ccc(Br)cc23)c2c[nH]c3ccc(Br)cc23)c(O)c1`, it took 1.62 µM to reach half-maximal inhibition against Beta-glucuronidase (IC50). For `Fc1ccccc1C(c1c[nH]c2ccc(Br)cc12)c1c[nH]c2ccc(Br)cc12`, at Beta-glucuronidase, it took 18.4 µM to reach half-maximal inhibition (IC50). With `O=[N+]([O-])c1ccccc1C(c1c[nH]c2ccc(Br)cc12)c1c[nH]c2ccc(Br)cc12`, the inhibition in assay [1] was less than 50%.

Take `Clc1ccc(C(c2c[nH]c3ccc(Br)cc23)c2c[nH]c3ccc(Br)cc23)cc1Cl`: the 50% inhibitory concentration (IC50) (usually the point on the concentration scale where inhibition reaches its midpoint) against Beta-glucuronidase turned out to be 21.5 µM. In the case of `CSc1ccc(C(c2c[nH]c3ccc(C#N)cc23)c2c[nH]c3ccc(C#N)cc23)cc1`, the inhibition in assay [1] was less than 50%. Same read-out and setting: then `O=[N+]([O-])c1ccc(C(c2c[nH]c3ccc(Br)cc23)c2c[nH]c3ccc(Br)cc23)cc1`, with less than 50%. The same measure, in the same setting: then `COc1cc(C(c2c[nH]c3ccc(Br)cc23)c2c[nH]c3ccc(Br)cc23)ccc1O`, with less than 50%.
